The values that follow come from patent US11795162B2, “Modulators of the estrogen-related receptor” (Saint Louis University, priority 2017, dated 2023).

Molecules are shown by their SMILES.

One experiment deals with T1, ERRγ (Homo sapiens, UniProt P62508).
T1 construct: Data for selected compounds in the full-length; expressed in transfected cells; host or cells: HEK293
T1 sequence (P62508 1-458): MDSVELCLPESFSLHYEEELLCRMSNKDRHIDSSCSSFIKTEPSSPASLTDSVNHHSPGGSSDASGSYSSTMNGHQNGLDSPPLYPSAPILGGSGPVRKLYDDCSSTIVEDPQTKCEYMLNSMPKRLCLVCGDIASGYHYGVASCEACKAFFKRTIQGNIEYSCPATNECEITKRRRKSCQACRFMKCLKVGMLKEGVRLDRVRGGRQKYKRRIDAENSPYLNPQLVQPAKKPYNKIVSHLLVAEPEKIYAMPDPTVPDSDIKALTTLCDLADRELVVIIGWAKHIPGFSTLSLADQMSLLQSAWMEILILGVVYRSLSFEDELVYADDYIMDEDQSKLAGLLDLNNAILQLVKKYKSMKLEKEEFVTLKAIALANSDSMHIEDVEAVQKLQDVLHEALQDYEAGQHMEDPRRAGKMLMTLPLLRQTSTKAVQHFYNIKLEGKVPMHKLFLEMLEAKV
Description: Full-length ERRγ luciferase reporter assay (ERRE reporter, HEK293 cells). Format: cell-based. The settings on record: HEK293 cells transfected with ERRE reporter and pcDNA3.1 ERRγ, 24 hours treatment. The procedure: Luciferase Assay. HEK293 cells were maintained in Dulbecco's modified Eagles medium (DMEM) supplemented with 10% fetal bovine serum at 37° C. under 5% CO2. […] Cells were transfected with ERRE reporter construct and pcDNA3.1 ERRγ. 24 hour post-transfection, the cells were treated with vehicle or compound for 24 hours.

A further experiment concerns the target T2, ERR gamma protein (Homo sapiens, UniProt P62508).
T2 sequence (P62508 1-458): T1 sequence (P62508 1-458)
In words: Protein thermal shift assay. Type of experiment: binding. The settings on record: compound at 20 μM; ERR gamma protein 0.1 mg/mL, SYPRO-Orange; read-out: T.S. (thermal shift) range. The method, then: Six replicate reactions were set up and run in Applied Biosystems Quantstudio 7 Real-Time PCR system. Data were collected at a ramp rate of 0.05° C./s from 24° C. through 95° C. and analyzed using Protein Thermal Shift Software 1.3.

At ERRγ, `O=C(Nc1cccc(F)c1)c1ccc(-c2ccc(B(O)O)cc2)s1` [Compound 8, (4-(5-((3-fluorophenyl)carbamoyl)thiophen-2-yl)phenyl)boronic acid] registered a 50% effective concentration (EC50) of 89 nM.
Molecule `O=C(Nc1cccc(B(O)O)c1)c1ccc(-c2cccc(F)c2)s1` [Compound 50] gave an EC50 at ERRγ of 563 nM. The ΔTm at 20 µM on ERR gamma protein was 2 to 4 °C.
As to `O=C(Nc1cccc(O)c1)c1ccc(-c2ccsc2)s1` [Compound 74], the 50% effective concentration (EC50) at ERRγ was determined as 1010 nM.
Consider `O=C(Nc1ccc(O)cc1)c1ccc(-c2ccc(C(F)(F)F)cc2)s1` [Compound 114], for which the EC50 at ERRγ amounted to 2680 nM. Also, at ERR gamma protein, the ΔTm at 20 µM was in the range of 2 to 4 °C.
Taken in the same sequence, the figures for `O=C(Nc1ccc2ccccc2c1)c1cc(-c2ccc(O)cc2)[nH]n1` [Compound 122] were 734 nM and 2 to 4 °C.
In the case of `O=C(Nc1ccc(Cl)cc1)c1cc(-c2cccc(O)c2)[nH]n1` [Compound 125], the EC50 at ERRγ is over 25000 nM. In addition, the ΔTm at 20 µM at ERR gamma protein was in the range of 2 to 4 °C.
For `O=C(NC1CCC(O)CC1)c1ccc(-c2ccccc2)o1` (stereo not shown) [Compound 135], a half-maximal response at ERRγ (EC50) required 3500 nM.
With `O=C(Nc1ccccc1F)c1ccc(-c2cccc(C(=O)C(F)(F)F)c2)s1` [Compound 154], the ΔTm at 20 µM on ERR gamma protein lay in the range of 0 to 2 °C.
`O=C(Nc1cccc(F)c1)c1ccc(-c2ccc(O)cc2)o1` [Compound 157] yielded an EC50 on ERRγ of 3400 nM.
